Laboratory results as given in patent US9862730B2, “Imidazothiadiazole derivatives as protease activated receptor 4 (PAR4) inhibitors for treating platelet aggregation” (BRISTOL-MYERS SQUIBB COMPANY, priority 2012, dated 2018).
pIC50: −log10 of the molar value.

How the values were obtained:
PAR4 [1] = molecular target: T1, PAR4 (Homo sapiens (Human), UniProt Q96RI0); assay: Gamma thrombin induced platelet aggregation assay in PRP (PRP assay); assay type: cell-based
From the text: The compounds of the current invention can be tested in vitro for their ability to inhibit platelet aggregation induced by gamma-thrombin as shown in Example C. Gamma-thrombin, a proteolytic product of alpha-thrombin which no longer interacts with PAR1, selectively cleaves and activates PAR4 (Soslau, G. et al., “Unique pathway of thrombin-induced platelet aggregation mediated by glycoprotein Ib”, J. Biol. Chem., 276:21173-21183 (2001)). Platelet aggregation can be monitored in a 96-well microplate aggregation assay format or using standard platelet aggregometer. The aggregation assay can also be employed to test the selectivity of the compound for inhibiting platelet aggregation induced by PAR4 agonist peptides, PAR1 agonist peptide, ADP, or thromboxane analogue U46619.
The platelet rich plasma was isolated by centrifugation at 170 g for 14 minutes.
The ability of the compounds of the current invention to inhibit platelet aggregation induced by gamma-thrombin was tested in a 96-well microplate aggregation assay format. Briefly, PRP or washed platelet suspension (100 μl) was pre-incubated for 5 minutes at room temperature with varying concentrations of compounds. Aggregation was initiated by ˜10-50 nM gamma thrombin (Haematologic Technologies, Essex Junction, Vt.), which was titrated daily to achieve 80% platelet aggregation. Refludan at 1 U/mL (Berlex, Montville, N.J.) was added to the gamma thrombin sample to prevent PAR1 activation induced by residual alpha-thrombin contamination. The plate was then placed into a 37° C. Molecular Devices (Sunnyvale, Calif.) SPECTRAMAX® Plus Plate Reader. […] Data was collected with SOFTMAX® 4.71 software. The plate also included an untreated control sample which served as ODmax, while buffer containing no platelets was the ODmin. Platelet aggregation was determined by subtracting the ODmax from the ODmin for the 100% aggregation value. In experimental samples, the observed transmission was subtracted from the minimum value and then compared to the 100% aggregation value to determine the percentage aggregation. IC50 values are determined using Excel Fit software.
As indicated above, the PRP assay, an in vitro assay, measures the PAR4 antagonist activity of compounds tested as described in Example C.

PAR4 [2] = molecular target: T1, PAR4; assay: FLIPR assay in PAR4-expressing HEK293 cells (PAR4 antagonist activity, calcium mobilization); assay type: cell-based; conditions: FLIPR assay as described in Example A
How it was run: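 HEK293 cells stably expressing human PAR4 (also endogenous PAR1) in HBSS/10 mM HEPES, 0.67% DMSO final. Compound added and read for agonist activity, then 30 min room temperature before PAR4 agonist peptide; intracellular calcium mobilization monitored by FDSS/FLIPR.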

T1 sequence (Q96RI0 18-385): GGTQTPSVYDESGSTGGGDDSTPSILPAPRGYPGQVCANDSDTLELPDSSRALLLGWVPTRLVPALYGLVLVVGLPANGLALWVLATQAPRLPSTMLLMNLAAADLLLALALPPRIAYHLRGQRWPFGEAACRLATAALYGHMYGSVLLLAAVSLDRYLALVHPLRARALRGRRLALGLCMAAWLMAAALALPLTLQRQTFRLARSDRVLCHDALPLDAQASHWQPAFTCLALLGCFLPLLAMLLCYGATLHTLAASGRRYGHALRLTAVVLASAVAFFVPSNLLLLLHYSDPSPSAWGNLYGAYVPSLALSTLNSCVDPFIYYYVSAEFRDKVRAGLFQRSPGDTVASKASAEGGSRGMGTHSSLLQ

pIC50 (PAR4 [1])	pIC50 (PAR4 [2])	SMILES
< 4.52	6.45	COc1nn2cc(-c3nc4ccccc4s3)nc2s1 [Example 5, 2-(2-Methoxyimidazo[2,1-b][1,3,4]thiadiazol-6-yl)benzo[d]thiazole]
< 4.52	5.74	COc1nn2cc(-c3cc4ccc(OC)c(OC)c4o3)nc2s1 [Example 10, 6-(6,7-Dimethoxybenzofuran-2-yl)-2-methoxyimidazo[2,1-b][1,3,4]thiadiazole]
5.03	8.06	COc1cccc2cc(-c3cn4nc(SC)sc4n3)oc12 [Example 14]
< 4.52	6.43	COc1ccc2oc(-c3cn4nc(SC)sc4n3)cc2c1 [Example 16]
< 4.52		CSc1nn2cc(-c3cc4ccccc4s3)nc2s1 [Example 17]
5.06	6.66	CSc1nn2cc(-c3cc4cccc(C)c4o3)nc2s1 [Example 22]
< 4.52		CCOc1nn2cc(-c3cc4ccccc4o3)nc2s1 [Example 26]
< 4.52	5.75	CCOc1nn2cc(-c3nc4ccccc4s3)nc2s1 [Example 27]
< 4.52	6.83	CCOc1cccc2cc(-c3cn4nc(OC)sc4n3)oc12 [Example 34]
< 4.52	5.78	COc1nn2cc(-c3oc4c(OC)c(OC)ccc4c3C)nc2s1 [Example 36]
< 4.52	7.18	CCc1nn2cc(-c3nc4cc(F)c(F)cc4o3)nc2s1 [Example 38]
< 4.52	6.66	CCc1nn2cc(-c3nc4ccc(OC)cc4o3)nc2s1 [Example 39]
< 4.52	6.24	CCc1nn2cc(-c3nc4cc(C(C)(C)C)ccc4o3)nc2s1 [Example 57]
4.78	7.26	Brc1nn2cc(-c3cc4ccccc4o3)nc2s1 [Example 68]
5.63	8.41	COc1cc(OC)c2c(C)c(-c3cn4nc(OC)sc4n3)oc2c1 [Example 72]
< 4.52	7.50	COc1nn2cc(-c3nc4c(C)cccc4o3)nc2s1 [Example 129]
< 4.52	6.97	CCC(C)(C)c1ccc2oc(-c3cn4nc(SC)sc4n3)nc2c1 [Example 131]
< 4.52	7.30	COc1nn2cc(-c3nc4cc(F)ccc4o3)nc2s1 [Example 135]
< 4.52	7.55	CSc1nn2cc(-c3nc4c(OC(C)C)cccc4o3)nc2s1 [Example 159]

pIC50 (PAR4 [1])	pIC50 (PAR4 [2])	SMILES
< 4.52	7.10	CSc1nn2cc(-c3nc4ccc(OC(C)C)cc4o3)nc2s1 [Example 161]
5.04	7.81	COc1ccc2nc(-c3cn4nc(OC)sc4n3)oc2c1 [Example 164]
5.28	7.40	CSc1nn2cc(-c3nc4c(OCc5cccc(OCc6ccccc6)c5)cccc4o3)nc2s1 [Example 173]
< 4.52	6.92	COCCOc1cccc2oc(-c3cn4nc(Br)sc4n3)cc12 [Example 252]
< 4.52	6.94	CSc1nn2cc(-c3cc4c(OCc5ccccc5)cc(OCc5ccccc5)cc4o3)nc2s1 [Example 253]
< 4.52	6.95	COc1nn2cc(-c3cc4c(OCc5ccccc5)cc(OCc5ccccc5)cc4o3)nc2s1 [Example 255]
5.25	7.30	COc1ccc(Br)c2cc(-c3cn4nc(SC)sc4n3)oc12 [Example 282]
5.53	7.64	COc1cc(OCc2ccc(F)cc2)c2cc(-c3cn4nc(SC)sc4n3)oc2c1 [Example 301]
< 4.52	6.71	COc1cc(OCc2ccc(F)cc2)c2cc(-c3cn4nc(Br)sc4n3)oc2c1 [Example 302]
5.50	8.25	COc1cc(OCc2ccc(F)cc2)c2cc(-c3cn4nc(OC)sc4n3)oc2c1 [Example 303]
< 4.52	7.25	COc1cc(OCc2ccc(F)cc2)c2cc(-c3cn4nc(C(C)(F)F)sc4n3)oc2c1 [Example 304]
7.00	8.03	COc1cc(OCc2cccc(OCc3cccc(C)n3)c2)c2cc(-c3cn4nc(OC)sc4n3)oc2c1 [Example 307]
7.03	8.38	COc1cc(OCc2cccc(OCc3cccc(C(F)(F)F)c3F)c2)c2cc(-c3cn4nc(OC)sc4n3)oc2c1 [Example 316]
7.44	8.72	COc1cc(OCc2cccc(OCc3ccccc3F)c2)c2cc(-c3cn4nc(OC)sc4n3)oc2c1 [Example 318]
6.91	8.04	COc1cc(OCc2cccc(OCc3ccccn3)c2)c2cc(-c3cn4nc(OC)sc4n3)oc2c1 [Example 319]
7.12	8.41	COc1cc(OCc2cccc(OCc3ccnc(Cl)c3)c2)c2cc(-c3cn4nc(OC)sc4n3)oc2c1 [Example 320]
7.06	8.79	COc1cc(OCc2cccc(OCc3ccc(F)c(F)c3F)c2)c2cc(-c3cn4nc(OC)sc4n3)oc2c1 [Example 325]
7.42		COc1cc(OCc2cccc(OCc3cccc(F)c3)c2)c2cc(-c3cn4nc(OC)sc4n3)oc2c1 [Example 327]
< 4.52	6.40	CSc1nn2cc(-c3nc4c(OC[C@@H]5CCCN5C(=O)[C@H](NC(=O)c5ccccc5)c5ccccc5)cccc4o3)nc2s1 [Example 337, N—((R)-2-((S)-2-(((2-(2-(Methylthio)imidazo[2,1-b][1,3,4]thiadiazol-6-yl)benzo[d]oxazol-4-yl)oxy)methyl)pyrrolidin-1-yl)-2-oxo-1-phenylethyl)benzamide]

pIC50 (PAR4 [1])	pIC50 (PAR4 [2])	SMILES
6.83	8.77	COc1cc(OCc2cccc(OCc3ccc(F)cc3)c2)c2cc(-c3cn4nc(OC)sc4n3)oc2c1 [Example 346]
6.24	8.56	COc1cc(OCc2cccc(OCc3ccccc3)c2)c2cc(-c3cn4nc(C(C)(F)F)sc4n3)oc2c1 [Example 347]
5.51	8.65	CCOc1nn2cc(-c3cc4c(OCc5cccc(OCc6ccccc6)c5)cc(OC)cc4o3)nc2s1 [Example 348]
7.07	9.12	COc1cc(OCc2cc(F)cc(OCc3ccccc3)c2)c2cc(-c3cn4nc(OC)sc4n3)oc2c1 [Example 350]
7.98	8.65	COc1cc(OCc2cccc(OCc3cccc(OC)c3OC)c2)c2cc(-c3cn4nc(OC)sc4n3)oc2c1 [Example 353]
7.48	8.78	COc1cc(OCc2cccc(OC(=O)c3ccccc3)c2)c2cc(-c3cn4nc(OC)sc4n3)oc2c1 [Example 355]
6.96	8.78	COc1cc(OCc2cccc(OCc3cc(F)cc(C(F)(F)F)c3)c2)c2cc(-c3cn4nc(OC)sc4n3)oc2c1 [Example 356]
7.42	8.62	COc1cc(OCc2cccc(OCc3ccccc3C)c2)c2cc(-c3cn4nc(OC)sc4n3)oc2c1 [Example 363]
5.24	7.98	COc1cc(OCc2cccc(OCc3ccccc3CCc3ccccc3)c2)c2cc(-c3cn4nc(OC)sc4n3)oc2c1 [Example 364]
6.82	8.28	COc1cc(OCc2cccc(OCc3c(F)cccc3Cl)c2)c2cc(-c3cn4nc(OC)sc4n3)oc2c1 [Example 370]
5.16	8.12	COc1cc(OCc2cccc(OCc3cc(OC(C)C)cc(OC(C)C)c3)c2)c2cc(-c3cn4nc(OC)sc4n3)oc2c1 [Example 371]
5.47	8.64	COc1cc(OCc2cccc(OCc3ccc(Oc4ccccc4)cc3)c2)c2cc(-c3cn4nc(OC)sc4n3)oc2c1 [Example 372]
5.60	8.12	COc1cc(COc2cccc(COc3cc(OC)cc4oc(-c5cn6nc(OC)sc6n5)cc34)c2)cc(OCc2ccccc2)c1 [Example 373]
6.17	8.14	COc1cc(OCc2cccc(OCc3cc(Cl)cc(Cl)c3)c2)c2cc(-c3cn4nc(OC)sc4n3)oc2c1 [Example 376]
6.23	8.06	COc1cc(OCc2cccc(OCc3cccc(OCc4ccccc4)c3)c2)c2cc(-c3cn4nc(OC)sc4n3)oc2c1 [Example 383]
6.25	8.30	COc1cc(OCc2cccc(OCc3cccc(Oc4ccccc4)c3)c2)c2cc(-c3cn4nc(OC)sc4n3)oc2c1 [Example 384]
7.26	8.75	COc1cc(OCc2cccc(OCc3cccc(C)c3)c2)c2cc(-c3cn4nc(OC)sc4n3)oc2c1 [Example 386]
5.62	7.38	COc1nn2cc(-c3cc4c(OCc5cccc(OCc6cccc(C)c6)c5)c(Cc5ccccc5)c(OC)cc4o3)nc2s1 [Example 387]
